From US20260262643A1, “HERBICIDAL BENZOXAZINES” (FMC CORPORATION, priority 2022, published 2026)

What was measured:
[1] = tested on: horseweed; assay: Test A postemergence; assay type: in vivo, Erigeron canadensis; conditions: postemergence, 10 days
How it was run: (§1)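 Loam/sand soil; pre-em directed soil spray at planting, post-em spray at 1–2 leaf (2–10 cm). Compound in non-phytotoxic solvent + surfactant. Greenhouse 10 d; visual injury vs untreated, 0 = no effect, 100 = complete control.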

[2] = tested on: barnyardgrass; assay: Test A postemergence; assay type: in vivo, Echinochloa crusgalli; conditions: postemergence, 10 days
Text: (§2) Seeds of plant species selected from barnyardgrass (Echinochloa crusgalli), blackgrass (Alopecurus myosuroides), corn (Zea mays), foxtail, giant (giant foxtail, Setaria faberi), goosegrass (Eleusine indica), kochia (Bassia scoparia), oat, wild (wild oat, Avena fatua), pigweed, palmer (palmer amaranth, palmer pigweed, Amaranthus palmeri), Pigweed, Redroot (redroot pigweed, Amaranthus retroflexus), ragweed (common ragweed, Ambrosia artemisiifolia), ryegrass, Italian (italian ryegrass, Lolium multiflorum), soybean (Glycine max), and wheat (Triticum aestivum) were planted into a blend of loam soil and sand and treated preemergence with a directed soil spray using test chemicals formulated in a non-phytotoxic solvent mixture which included a surfactant. At the same time, plants selected from these crops and weed species and also galium (catchweed bedstraw, Galium aparine) and horseweed (Erigeron canadensis) were planted in pots containing the same blend of loam soil and sand and treated with postemergence applications of test chemicals formulated in the same manner. Plants ranged in height from 2 to 10 cm and were in the one- to two-leaf stage for the postemergence treatment. Treated plants and untreated controls were maintained in a greenhouse for 10 days, after which time all treated plants were compared to untreated controls and visually evaluated for injury. Plant response ratings, summarized in Table A, are based on a 0 to 100 scale where 0 is no effect and 100 is complete control. A dash (-) response means no test result.

[3] = tested on: corn; assay: Test A postemergence; assay type: in vivo, Zea mays; conditions: postemergence, 10 days
How it was run: as §1

[4] = tested on: kochia; assay: Test A postemergence; assay type: in vivo, Bassia scoparia; conditions: postemergence, 10 days
How it was run: as §1

[5] = tested on: wheat; assay: Test A preemergence; assay type: in vivo, Triticum aestivum; conditions: 0 to 100 scale
How it was run: as §1

[6] = tested on: ragweed; assay: Test A postemergence; assay type: in vivo, Ambrosia artemisiifolia; conditions: postemergence, 10 days
How it was run: as §1

[7] = tested on: barnyardgrass; assay: Test A preemergence; assay type: in vivo, Echinochloa crusgalli; conditions: visual injury after 10 days, 0 to 100 scale, 0 is no effect, 100 is complete control
Text: as §2

[8] = tested on: ryegrass, Italian; assay: Test A preemergence; assay type: in vivo, Lolium multiflorum; conditions: 0 to 100 scale
How it was run: as §1

[9] = tested on: oat, wild; assay: Test A preemergence; assay type: in vivo, Avena fatua; conditions: 0 to 100 scale
How it was run: as §1

[10] = tested on: rice; assay: Test B flooded paddy test; assay type: in vivo, Oryza sativa; conditions: 250 g ai/ha, Flood, 13 days, 0 to 100 scale (0 no effect, 100 complete control)
How it was run: (§3)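 Percent weed or crop control, judged by eye on a 0–100 scale 13 days post-treatment, reflects compound added to a 3 cm flood maintained over 2-leaf plants in the greenhouse. Missing entries are marked with a dash.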

[11] = tested on: ducksalad; assay: Test B flooded paddy test; assay type: in vivo, Heteranthera limosa; conditions: 250 g ai/ha, Flood, 13 days, 0 to 100 scale (0 no effect, 100 complete control)
How it was run: as §3

[12] = tested on: foxtail, giant; assay: Test A preemergence; assay type: in vivo, Setaria faberi; conditions: 0 to 100 scale
How it was run: as §1

[13] = tested on: ryegrass, Italian; assay: Test A postemergence; assay type: in vivo, Lolium multiflorum; conditions: postemergence, 10 days
How it was run: as §1

[14] = tested on: soybean; assay: Test A postemergence; assay type: in vivo, Glycine max; conditions: postemergence, 10 days
How it was run: as §1

[15] = tested on: wheat; assay: Test A postemergence; assay type: in vivo, Triticum aestivum; conditions: postemergence, 10 days
How it was run: as §1

[16] = tested on: pigweed, palmer; assay: Test A postemergence; assay type: in vivo, Amaranthus palmeri; conditions: postemergence, 10 days
How it was run: as §1

[17] = tested on: ragweed; assay: Test A preemergence; assay type: in vivo, Ambrosia artemisiifolia; conditions: 0 to 100 scale
How it was run: as §1

[18] = tested on: blackgrass; assay: Test A preemergence; assay type: in vivo, Alopecurus myosuroides; conditions: 0 to 100 scale
How it was run: as §1

[19] = tested on: oat, wild; assay: Test A postemergence; assay type: in vivo, Avena fatua; conditions: postemergence, 10 days
How it was run: as §1

[20] = tested on: galium; assay: Test A postemergence; assay type: in vivo, Galium aparine; conditions: postemergence, 10 days
How it was run: as §1

[21] = tested on: foxtail, giant; assay: Test A postemergence; assay type: in vivo, Setaria faberi; conditions: postemergence, 10 days
How it was run: as §1

[22] = tested on: corn; assay: Test A preemergence; assay type: in vivo, Zea mays; conditions: 0 to 100 scale
How it was run: as §1

[23] = tested on: kochia; assay: Test A preemergence; assay type: in vivo, Bassia scoparia; conditions: 0 to 100 scale
How it was run: as §1

[24] = tested on: pigweed, palmer; assay: Test A preemergence; assay type: in vivo, Amaranthus palmeri; conditions: 0 to 100 scale
How it was run: as §1

[25] = tested on: sedge, umbrella; assay: Test B flooded paddy test; assay type: in vivo, Cyperus difformis; conditions: 250 g ai/ha, Flood, 13 days, 0 to 100 scale (0 no effect, 100 complete control)
How it was run: as §3

[26] = tested on: blackgrass; assay: Test A postemergence; assay type: in vivo, Alopecurus myosuroides; conditions: postemergence, 10 days
How it was run: as §1

[27] = tested on: barnyardgrass; assay: Test B flooded paddy test; assay type: in vivo, Echinochloa crus-galli; conditions: 250 g ai/ha, Flood, 13 days, 0 to 100 scale (0 no effect, 100 complete control)
How it was run: as §3

[28] = tested on: soybean; assay: Test A preemergence; assay type: in vivo, Glycine max; conditions: 0 to 100 scale
How it was run: as §1

[29] = 125 g ai/ha, 0 to 100 scale, 0 no effect, 100 complete control
[30] = 500 g ai/ha, visual injury, 0 to 100 scale (0 no effect, 100 complete control)
[31] = 500 g ai/ha, visual injury after 10 days, 0 is no effect, 100 is complete control

CC(C)c1ncn(-c2ccc(C#N)c(C(=O)N3C[C@H](C)Oc4c(Cl)cccc43)c2)n1 [Compound 140]
Horseweed plant response rating [1, 29]: 0 | Plant response rating, Horseweed [1, 30]: 0 | Barnyardgrass plant response rating [2, 29]: 50 | Plant response rating, Barnyardgrass [2, 30]: 70 | Corn plant response rating [3, 29]: 70 | Plant response rating, Corn [3, 30]: 90 | Kochia plant response rating [4, 29]: 90 | Plant response rating, Kochia [4, 30]: 90 | Plant response rating, Wheat ([5]; 125 g ai/ha): 20 | Plant response rating, Wheat [5, 31]: 50 | Ragweed plant response rating [6, 29]: 20 | Plant response rating, Ragweed [6, 30]: 40 | Plant response rating, Barnyardgrass ([7]; 125 g ai/ha): 90 | Plant response rating, Barnyardgrass ([7]; 500 g ai/ha): 90 | Plant response rating, Ryegrass, Italian ([8]; 125 g ai/ha): 50 | Plant response rating, Ryegrass, Italian [8, 31]: 70 | Plant response rating, Oat, Wild ([9]; 125 g ai/ha): 30 | Plant response rating, Oat, Wild [9, 31]: 70 | Plant response rating, Rice [10]: 0 | Plant response rating, Ducksalad [11]: 40 | Plant response rating, Foxtail, Giant ([12]; 125 g ai/ha): 90 | Plant response rating, Foxtail, Giant [12, 31]: 100 | Ryegrass, Italian plant response rating [13, 29]: 40 | Plant response rating, Ryegrass, Italian [13, 30]: 50 | Soybean plant response rating [14, 29]: 100 | Plant response rating, Soybean [14, 30]: 100 | Wheat plant response rating [15, 29]: 30 | Plant response rating, Wheat [15, 30]: 60 | Pigweed, Palmer plant response rating [16, 29]: 70 | Plant response rating, Pigweed, Palmer [16, 30]: 90 | Plant response rating, Ragweed ([17]; 125 g ai/ha): 0 | Plant response rating, Ragweed [17, 31]: 30 | Plant response rating, Blackgrass ([18]; 125 g ai/ha): 40 | Plant response rating, Blackgrass [18, 31]: 70 | Oat, Wild plant response rating [19, 29]: 0 | Plant response rating, Oat, Wild [19, 30]: 50 | Galium plant response rating [20, 29]: 70 | Plant response rating, Galium [20, 30]: 70 | Foxtail, Giant plant response rating [21, 29]: 90 | Plant response rating, Foxtail, Giant [21, 30]: 90 | Plant response rating, Corn ([22]; 125 g ai/ha): 0 | Plant response rating, Corn [22, 31]: 10 | Plant response rating, Kochia ([23]; 125 g ai/ha): 80 | Plant response rating, Kochia [23, 31]: 90 | Plant response rating, Pigweed, Palmer ([24]; 125 g ai/ha): 100 | Plant response rating, Pigweed, Palmer [24, 31]: 100 | Plant response rating, Sedge, Umbrella [25]: 75 | Blackgrass plant response rating [26, 29]: 70 | Plant response rating, Blackgrass [26, 30]: 80 | Plant response rating, Barnyardgrass [27]: 20 | Plant response rating, Soybean ([28]; 125 g ai/ha): 50 | Plant response rating, Soybean [28, 31]: 100
